According to patent US10888569B1, “Methods and compositions for treating cancer” (THE UNIVERSITY OF CHICAGO, priority 2017, dated 2021):

Key:
TNBC cells (BM1) = experiment: Metabolic phenotypes OCR and ECAR (Seahorse analyzer); format: cell-based, human; settings: hemin (pre-)treatment overnight
Method: TNBC cell lines stably knocked down with lenti-viral shRNA for BACH1 were constructed and maintained as described previously. Gene expression analysis of cultured cells and isolated tumor tissues used a Reverse transcriptase kit followed by Roche96 cycler for real time mRNA quantification and Lycor imaging for immunoblotting. For in vitro cell viability assay with mitochondrial inhibitors, TNBC cells (2×10^3-5×10^3/well) seeded on 96 well plates overnight with culture media (DMEM with 25 mM Glucose) were treated with inhibitors in fresh culture media (DMEM with 1.25 mM Glucose) for 48 and 72 hours and stained with calcein AM and/or monitored for cellular confluency using an IncuCyte Zoom Live Cell Analysis system. Extracellular flux analyzer was used to assay metabolic phenotypes of BACH1-depleted TNBC cells and TNBC cells that are treated with hemin overnight before assays. For bioinformatics analysis using primary patient data cohort (TCGA), cBioportal and R were used.
Extracellular acidification rates (ECAR) and oxygen consumption rates (OCR) were monitored by a Seahorse Bioscience Analyzer (XF24; Univ. of Illinois at Chicago and XFe96; Biophysics Core Facility at Univ. of Chicago). Cells were seeded in 24 well plates at a density of 5×10^4 and 96 well plates at a density of 8×10^3 cells per well with growth media for at least 18 hours. The following day, media was changed to base media (DMEM, 143 mM NaCl, Phenol red, pH 7.35). For ECAR analysis, cells were added with media (2 mM Glutamine, pH 7.35) and monitored every 3 minutes following successive administration of 10 mM of glucose, and inhibitors such as 1 μM of oligomycin and 50 mM of 2-DG. For OCR analysis, cells were added with mito stress test base media (10 mM Glucose, 2 mM Glutamine, 1 mM Pyruvate, pH 7.4) and monitored every 3 minutes following successive administration of inhibitors such as 2 μM of oligomycin, 2 μM of FCCP, and […] of Rotenone/AntimycinA. BCA protein assays were used to normalize metabolic rates to cell number.

BACH1 [1] = target: T1, BACH1 (Homo sapiens, UniProt O14867); experiment: Immunoblotting of BACH1 in cell lysates after hemin; format: cell-based; design: Protein blots of BACH1 levels in BM1 and MB436 cells treated with Hemin for 4 or 24 hours; endogenous in cells; host or cells: BM1 (MDA-MB-231 derivative), MDA-MB-436, BT549
T1 sequence (O14867 1-736): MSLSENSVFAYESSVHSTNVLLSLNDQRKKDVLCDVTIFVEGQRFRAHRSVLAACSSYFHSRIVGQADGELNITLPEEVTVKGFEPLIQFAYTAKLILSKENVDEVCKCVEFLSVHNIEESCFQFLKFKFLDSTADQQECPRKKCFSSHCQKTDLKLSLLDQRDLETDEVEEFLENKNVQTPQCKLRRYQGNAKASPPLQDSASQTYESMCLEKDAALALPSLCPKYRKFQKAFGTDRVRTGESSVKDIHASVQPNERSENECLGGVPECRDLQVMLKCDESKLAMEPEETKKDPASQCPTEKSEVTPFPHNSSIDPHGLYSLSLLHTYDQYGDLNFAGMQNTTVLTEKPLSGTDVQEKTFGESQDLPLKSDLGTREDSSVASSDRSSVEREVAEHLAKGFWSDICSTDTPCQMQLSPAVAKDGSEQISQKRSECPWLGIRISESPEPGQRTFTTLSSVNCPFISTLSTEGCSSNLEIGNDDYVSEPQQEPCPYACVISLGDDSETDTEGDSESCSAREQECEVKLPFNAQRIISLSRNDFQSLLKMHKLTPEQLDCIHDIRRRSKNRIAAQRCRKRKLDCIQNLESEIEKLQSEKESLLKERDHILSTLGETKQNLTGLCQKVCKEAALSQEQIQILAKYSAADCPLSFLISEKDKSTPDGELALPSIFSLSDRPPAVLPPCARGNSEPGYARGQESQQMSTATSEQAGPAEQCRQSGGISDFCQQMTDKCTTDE
Method: (§1) Whole cell lysates were prepared using RIPA buffer (Sigma) with protease inhibitor cocktails (1:100 ThermoFisher) and phosphatase inhibitors (SimpleStop1, Gold Biotechnology) at 4° C. and quantified using Bradford assays for western blotting using antibodies against BACH1 (sc-271211; Santa Cruz), and alpha-TUBULIN (sc-28199; Santa Cruz). Blots were imaged and processed using a Licor Odyssey Fc, dual-mode imaging system (Licor).

BACH1 [2] = target: T1, BACH1; experiment: Immunoblotting of PDX tumor lysates: BACH1; format: in vivo, mouse; design: BACH1 protein blots using tumor lysates from representative mice of different TNBC models; from tissue; host or cells: TNBC patient-derived xenograft tumour in mammary fat pad of SCID-Beige mice; settings: following hemin treatment
Method: as §1
For a patient-derived xenografts (PDX) model, frozen PDX tumors in 0.5 ml of sterile HBSS were prepared in a volume of 10-20 mm^3. In brief, tumor fragments were implanted into the mammary fat pads of 5 weeks old SCID-Beige mice following standard procedures. […] Tumor volume was measured by caliper weekly. Tumor weight was measured at the end of drug treatment. Tumor size was shown as mean+/_s.e.m. with significance (p-value) by paired Student's t-test. All the animals were also monitored regularly for body weights.

pPDH (Ser293) = experiment: Immunoblotting of PDX tumor lysates: pPDH (Ser293); format: in vivo, mouse; settings: following hemin treatment

Question: Which ECAR (TNBC cells (BM1)) does the source give for `C=CC1=C(C)c2cc3[n-]c(cc4[n-]c(cc5nc(cc1n2)C(C)=C5C=C)c(C)c4CCC(=O)O)c(CCC(=O)O)c3C.[Cl-].[Fe+3]` [hemin, Chloro[3,7,12,17-tetramethyl-8,13-divinylporphyrin-2,18-dipropanoato(2-)]iron(III)] here?
Answer: lower basal ECAR

Question: What about the “maximum OCR” value (TNBC cells (BM1)) of the same compound?
Answer: higher maximum OCR

Question: What about the spare respiratory capacity (TNBC cells (BM1)) of the same compound?
Answer: higher spare respiratory capacity

Question: What about the BACH1 levels (BACH1 [1]; 20 μM hemin, cultured TNBC cells) of the same compound?
Answer: effective at reducing BACH1 levels

Question: What about the BACH1 levels (BACH1 [1]; hemin 10-80 μM, TNBC cells) of the same compound?
Answer: effective at reducing BACH1 levels

Question: What about the “BACH1 protein expression in PDX tumors” value (BACH1 [2]) of the same compound?
Answer: depleted

Question: And the “pPDH (Ser293) protein expression in PDX tumors” value (pPDH (Ser293))?
Answer: depleted
